# Measured values as given in patent EP0635577B1, “Screen for inhibitors of melanin biosynthesis” (BASF AKTIENGESELLSCHAFT, priority 1993, dated 1995).
# Structures can show the parent of a compound that is named as a salt.
# Tested on: Cladosporium cucumerinum
# Test: melanin biosynthesis inhibition screen, disk diffusion assay on solidified culture
# Type: cell-based
# Conditions: not given
# Description: Potato dextrose medium (PDM) for the screening test is prepared by melting
# The mixture is autoclaved as 150 ml aliquots at 121°C for 25 minutes.
# A chloramphenicol stock solution is prepared to contain 15 mg chloramphenicol per mL absolute ethanol and is stored at -20°C.
# Conidia from Cladosporium cucumerinum, 10^7/mL in 0.03% Tween 20™, retain their viability for at least 12 weeks of storage in 1.8 ml cryovials at -85°C. Inoculum for running the screen are raised once every three months and stored without a cryoprotectant at the working concentration of 10^7 conidia/mL.
# Fresh inoculum suspensions are prepared from conidial suspensions stored at -85°C. A cryovial is thawed by hand-heat, and 200 uL spread on the surface of PDA in 9 cm Petri dishes. Plates are placed in a resin box (to prevent fungal escape) and incubated at room temperature, 40 cm below laboratory fluorescent lights. Seven days later conidia are collected. Five mL of 0.03% Tween 20™ is added to each plate, and the conidia are released by rubbing the mycelium with a glass rod. The suspension is passed through a layer of sterile Miracloth™ and the concentration adjusted to 10^7 conidia/mL in 0.03% Tween 20™ using a haemocytometer. Aliquots of 1 mL are dispensed into cryovials and placed in a polystyrene holder to freeze slowly to -85°C.
# For the test, 150 mL of PDM is cooled to 35°C, and 0.1 mL of chloramphenicol stock solution is added by gentle swirling. A vial of C. cucumerinum conidial suspension (10^7 conidia/ml in Tween 20™) thawed with hand-heat is mixed into the growth medium using gentle swirling. The mixture is poured immediately into a Biotray, and the agar is allowed to solidify.
# Test compounds are applied to 0.63 cm (¼ inch) filter disks. Each test includes a positive control, 200 ng tricyclazole in 20% dimethyl sulphoxide (DMSO). The plate is incubated at room-temperature (∼23°C) 40 cm below laboratory fluorescent lights. The plate is read 40 hours later. […] The Biotrays are autoclaved before disposal.
# The compounds are applied as 20 ul droplets from a 1 mg/ml stock solution.
SMILES,"Observation: inhibits, radius cleared","Observation: fungal thinning, radius"
C[C@@H]1C[C@@H]([C@H](O)CC2CC(=O)NC(=O)C2)C(=O)[C@@H](C)C1 [Cycloheximide],"inhibits, 22 mm radius cleared",–
CN1C(=O)[C@]23CC4=CC=C[C@H](O)[C@H]4N2C(=O)[C@@]1(CO)SS3 [Gliotoxin],"inhibits, 17 mm radius cleared",–
Nc1ncnc2c1ccn2[C@@H]1O[C@H](CO)[C@@H](O)[C@H]1O [Tubercidin],–,"fungal thinning, 10 mm radius"

# Same assay, conditions: Antifungal Panel; effect on growth and pigmentation in words; 20 ul droplets from a 1 mg/ml stock solution on filter disk; read 40 hours later
row,SMILES,Observation
1,C[C@@H]1[C@H](O)[C@@H](C)/C=C/C=C/C=C/C=C/C=C/C=C/C=C/[C@H](O[C@@H]2O[C@H](C)[C@@H](O)[C@H](N)[C@@H]2O)C[C@@H]2O[C@](O)(C[C@@H](O)C[C@@H](O)[C@H](O)CC[C@@H](O)C[C@@H](O)CC(=O)O[C@H]1C)C[C@H](O)[C@H]2C(=O)O [Amphotericin B],no effect on growth or pigmentation
2,COCC(=O)N(c1c(C)cccc1C)C(C)C(=O)OC (stereo not drawn) [Metalaxyl],no effect on growth or pigmentation
3,C=CC1(C)OC(=O)N(c2cc(Cl)cc(Cl)c2)C1=O (stereo not drawn) [Ronilon],very slight effect on growth

# Same assay, conditions: Antifungal Panel; growth inhibition zone; 20 ul droplets from a 1 mg/ml stock solution on filter disk; read 40 hours later
row,SMILES,"Observation: inhibits, radius cleared"
1,Nc1nc(=O)[nH]cc1F [5-Fluoro-Cytosine],"inhibits, 35 mm radius cleared"
2,Nc1nc[nH]n1 [Amino-triazole],"inhibits, 13 mm radius cleared"
3,CCCCNC(=O)n1c(NC(=O)OC)nc2ccccc21 [Benomyl],"inhibits, 31 mm radius cleared"
4,CC1=C(C(=O)Nc2ccccc2)SCCO1 [Carboxin],"inhibits, 21 mm radius cleared"
5,CC(C)(C)C(O)/C(=C\c1ccc(Cl)cc1Cl)n1cncn1 (stereo not drawn) [Diniconazole],"inhibits, 27 mm radius cleared"
6,Clc1ccc(COC(Cn2ccnc2)c2ccc(Cl)cc2Cl)cc1 (stereo not drawn) [Econazole],"inhibits, 32 mm radius cleared"
7,OC(c1ccc(Cl)cc1)(c1cncnc1)c1ccccc1Cl (stereo not drawn) [Fenarimole],"inhibits, 22 mm radius cleared"
8,Clc1cc(Cl)c(OCC#CI)cc1Cl [Haloprofin],"inhibits, 13 mm radius cleared"
9,NC[C@H]1O[C@H](O[C@H]2[C@H](O)[C@@H](O[C@H]3O[C@H](CO)[C@@H](O)[C@H](N)[C@H]3O)[C@H](N)C[C@@H]2N)[C@H](O)[C@@H](O)[C@@H]1O [Kanamycin],"inhibits, 10 mm radius cleared"
10,CC(=O)N1CCN(c2ccc(OCC3COC(Cn4ccnc4)(c4ccc(Cl)cc4Cl)O3)cc2)CC1 (stereo not drawn) [Ketoconazole],"inhibits, 26 mm radius cleared"
11,Clc1ccc(COC(Cn2ccnc2)c2ccc(Cl)cc2Cl)c(Cl)c1 (stereo not drawn) [Miconazole],"inhibits, 31 mm radius cleared"
12,C[C@@H]([C@H](N)C(=O)N[C@H](C(=O)O)[C@H]1O[C@@H](n2ccc(=O)[nH]c2=O)[C@H](O)[C@@H]1O)[C@H](O)c1ccc(O)cn1 [Nikkomycin],"inhibits, 38 mm radius cleared"
13,CP(=O)(O)CC[C@H](N)C(=O)O [Phosphenothricin],"inhibits, 20 mm radius cleared"
14,NC(=O)OC[C@H](O)[C@@H](O)[C@H](N)C(=O)N[C@H](C(=O)O)[C@H]1O[C@@H](n2cc(C(=O)O)c(=O)[nH]c2=O)[C@H](O)[C@@H]1O [Polyoxin D],"inhibits, 7 mm radius cleared"
15,COC(=O)c1ccccc1S(=O)(=O)NC(=O)Nc1nc(C)cc(C)n1 [Sulfometuron methyl],"inhibits, 6 mm radius cleared"
16,Cc1cccc(N(C)C(=S)Oc2ccc3ccccc3c2)c1 [Tolnaftate],"inhibits, 13 mm radius cleared"
17,CCCCCCCCCCCCCN1CC(C)OC(C)C1 (stereo not drawn) [Tridemorph],"inhibits, 6 mm radius cleared"

# Same assay, conditions: C. cucumerinum Antibiotic Panel; effect on growth and pigmentation in words; screen of Example 1
row,SMILES,Observation
1,C[C@H]1CCC/C=C/[C@@H]2C[C@H](O)C[C@H]2[C@H](O)/C=C/C(=O)O1 [Ascotoxin],no effect on growth or pigmentation
2,Cc1cc(=O)n2c3c(c4c(cc13)c(CO)cc(=O)n4C)OC2 [Nybomycin],no effect on growth or pigmentation
3,CCCCC[C@@H](O)[C@H]1C(=O)O[C@H](C)[C@@H](O)/C=C/C=C/C=C/C=C/C=C(\C)[C@@H](O)[C@H](O)[C@H](O)C[C@H](O)C[C@H](O)C[C@H](O)C[C@H](O)C[C@@H]1O [Pentamycin],no effect on growth or pigmentation
4,CN(C)c1ncnc2c1ncn2[C@@H]1O[C@H](CO)[C@@H](N)[C@H]1O [Puromycin Aminonucleoside],no effect on growth or pigmentation
5,C[C@@H]1C[C@@H]2CCCC(O)=C2C(=O)O1 [Ramulosin],no effect on growth or pigmentation
6,CSC[S@+]([O-])C[C@H](CO)NC(=O)/C=C/c1c(C)[nH]c(=O)[nH]c1=O [Sparsomycin],no effect on growth or pigmentation
7,[H]/N=C(/N)N[C@H]1[C@H](O)[C@@H](O)[C@H](O[C@@H]2O[C@@H](C)[C@](O)(C=O)[C@H]2O[C@@H]2O[C@@H](CO)[C@H](O)[C@@H](O)[C@@H]2NC)[C@@H](N/C(N)=N\[H])[C@@H]1O [Streptomycin Sulfate],no effect on growth or pigmentation
8,C[C@@H]1C/C=C/C=C/C=C/C=C/[C@H](O[C@@H]2O[C@H](C)[C@@H](O)[C@H](N)[C@@H]2O)C[C@@H]2O[C@](O)(C[C@@H](O)C[C@H]3O[C@@H]3/C=C/C(=O)O1)C[C@H](O)[C@H]2C(=O)O [Tennecetin],no effect on growth or pigmentation

# Same assay, conditions: C. cucumerinum Antibiotic Panel; growth inhibition zone; screen of Example 1
row,SMILES,"Observation: inhibits, radius cleared"
1,Nc1ccn([C@@H]2O[C@H]([C@H](O[C@@H]3O[C@H](CO)[C@@H](O)[C@H](N)[C@H]3O)[C@@H](O)[C@@H](O)[C@H](O)[C@H](O)CO)[C@@H](N)[C@H](O)[C@H]2O)c(=O)n1 [Anthelmycin],"inhibits, 14 mm radius cleared"
2,CN[C@@H]1C[C@H](N)[C@@H](O)[C@H](O[C@@H]2O[C@H](CO)[C@H](O)[C@@H]3OC4(O[C@H]23)O[C@H]([C@@H](N)CO)[C@H](O)[C@H](O)[C@H]4O)[C@H]1O (stereo partly drawn) [Destomycin A],"inhibits, 18 mm radius cleared"
3,C/C=C/[C@H]1O[C@@](O)([C@@H](C)[C@H](O)[C@H](C)[C@H]2OC(=O)/C(OC)=C/C(C)=C/[C@@H](C)[C@@H](O)[C@@H](CC)[C@@H](O)[C@H](C)C/C(C)=C/C=C/[C@@H]2OC)C[C@@H](O[C@H]2C[C@@H](O)[C@H](OC(N)=O)[C@@H](C)O2)[C@@H]1C [Folimycin],"inhibits, 4 mm radius cleared"
4,C[C@H]1C[C@H](C)C(=O)[C@@H]([C@H](O)CC2CC(=O)NC(=O)C2)C1 [Naramycin B],"inhibits, 15 mm radius cleared"
5,CC1CCC(=O)C=CC(=O)OC(C)CCC(=O)C=CC(=O)O1 (stereo not drawn) [Pyrenophorin],"inhibits, 12 mm radius cleared"
6,Cc1cc(O)c2c(c1)C(=O)[C@]13C(=C2O)C(=O)[C@@H]2[C@H](O)[C@H]1[C@@H]1[C@@H](O)[C@H]3C(=O)C3=C(O)c4c(O)cc(C)cc4C(=O)[C@]312 [Rugulosin],"inhibits, 9 mm radius cleared"
7,CC(=O)Nc1c2sscc-2n(C)c1=O [Thiolutin],"inhibits, 23 mm radius cleared"

# Same assay, conditions: C. cucumerinum Antibiotic Panel; screen of Example 1
row,SMILES,"Observation: fungal thinning, radius"
1,COc1oc([C@H]2C/C(=C/C(C)=C/c3ccc([N+](=O)[O-])cc3)CO2)c(C)c(=O)c1C [Mycolutein],"fungal thinning, 16 mm radius"
